The test system of data set [1] is DU 145, hormone-independent human prostate carcinoma cells. The data set can be described thus: Proliferation assay, DU145 (crystal violet). It counts as cell-based. To be noted: DU-145, 96 h, DU145, 4 days, read-out: Inhibition of DU145 cell proliferation IC50. The procedure: (§1) Cultivated tumour cells (HeLa, human cervical tumour cells, ATCC CCL-2; NCI-H460, human non-small cell lung carcinoma cells, ATCC HTB-177; A2780, human ovarian carcinoma cells, ECACC #93112519; DU 145, hormone-independent human prostate carcinoma cells, ATCC HTB-81; HeLa-MaTu-ADR, multidrug-resistant human cervical carcinoma cells, EPO-GmbH Berlin; Caco-2, human colorectal carcinoma cells, ATCC HTB-37; B16F10, mouse melanoma cells, ATCC CRL-6475) were plated at a density of 5,000 cells/well (DU145, HeLa-MaTu-ADR), 3,000 cells/well (NCI-H460, HeLa), 2,500 cells/well (A2780), 1,500 cells/well (Caco-2), or 1,000 cells/well (B16F10) in a 96-well multititer plate in 200 μL of their respective growth medium supplemented 10% fetal calf serum. […] Cell proliferation was determined by staining the cells with crystal violet: the cells were fixed by adding 20 μl/measuring point of an 11% glutaric aldehyde solution for 15 minutes at room temperature. […] The extinction was determined by photometry at a wavelength of 595 nm. The change of cell number, in percent, was calculated by normalization of the measured values to the extinction values of the zero-point plate (=0%) and the extinction of the untreated (0 μm) cells (=100%). […]

Data set [2] deals with NCI-H460, human non-small cell lung carcinoma cells. The experiment in a line: Proliferation assay, NCI-H460 (crystal violet). It counts as cell-based. To be noted: 96 h, NCI-H460, 4 days, read-out: Inhibition of NCI-H460 cell proliferation IC50. The procedure: as §1
The next data set can be described thus: Caco-2 permeation assay. It counts as in vitro ADME. To be noted: human, pH 7.2. On the procedure:
4. Caco-2 Permeation Assay:
Caco-2 cells (purchased from DSMZ Braunschweig, Germany) were seeded at a density of 4.5×10^4 cells per well on 24 well insert plates, 0.4 μm pore size, and grown for 15 days in DMEM medium supplemented with 10% fetal bovine serum, 1% GlutaMAX (100×, GIBCO), 100 U/mL penicillin, 100 μg/mL streptomycin (GIBCO) and 1% non essential amino acids (100×). Cells were maintained at 37° C. in a humified 5% CO2 atmosphere. Medium was changed every 2-3 day. Before running the permeation assay, the culture medium was replaced by a FCS-free hepes-carbonate transport buffer (pH 7.2). For assessment of monolayer integrity the transepithelial electrical resistance (TEER) was measured. Test compounds were predissolved in DMSO and added either to the apical or basolateral compartment in final concentration of 2 μM in transport buffer. Before and after 2 h incubation at 37° C. samples were taken from both compartments. Analysis of compound content was done after precipitation with methanol by LC/MS/MS analysis. Permeability (Papp) was calculated in the apical to basolateral (A→B) and basolateral to apical (B→A) directions. The apparent permeability was calculated using following equation: Papp=(Vr/Po)(1/S)(P2/t)
Where Vr is the volume of medium in the receiver chamber, Po is the measured peak area or height of the test drug in the donor chamber at t=o, S the surface area of the monolayer, P2 is the measured peak area of the test drug in the acceptor chamber after 2 h of incubation, and t is the incubation time. The efflux ratio basolateral (B) to apical (A) was calculated by dividing the Papp B-A by the Papp A-B. In addition the compound recovery was calculated. The following reference compounds were used for the classification of the permeability class: Antipyrine, Pyrazosin, Verapamil, Fluvastatin, Cimetidine, Ranitidine, Atenolol, Sulfasalazine.

The test system of data set [3] is Caco-2, human colorectal carcinoma cells. The data set can be described thus: Proliferation assay, Caco-2 (crystal violet). Type of data set: cell-based. To be noted: 96 h, Caco-2, 4 days, read-out: Inhibition of Caco-2 cell proliferation IC50. On the procedure:
as §1

The subject of data set [4] is HeLa-MaTu-ADR, multidrug-resistant human cervical carcinoma cells. The data set can be described thus: Proliferation assay, HeLa-MaTu-ADR (crystal violet). Type of data set: cell-based. To be noted: 96 h, 4 days, read-out: Inhibition of HeLa-MaTu-ADR cell proliferation IC50. On the procedure: as §1
In data set [5] the test system is B16F10, mouse melanoma cells. The experiment in a line: Proliferation assay, B16F10 (crystal violet). Type of data set: cell-based. To be noted: B16-F10, 96 h, B16F10, 4 days, read-out: Inhibition of B16F10 cell proliferation IC50. On the procedure:
as §1

Data set [6] deals with HeLa, human cervical tumour cells. The experiment in a line: Proliferation assay, HeLa (crystal violet). To be noted: 96 h, 4 days, read-out: Inhibition of HeLa cell proliferation IC50. Type of data set: cell-based. The procedure:
Cultivated tumour cells (HeLa, human cervical tumour cells, ATCC CCL-2; NCI-H460, human non-small cell lung carcinoma cells, ATCC HTB-177; A2780, human ovarian carcinoma cells, ECACC #93112519; DU 145, hormone-independent human prostate carcinoma cells, ATCC HTB-81; HeLa-MaTu-ADR, multidrug-resistant human cervical carcinoma cells, EPO-GmbH Berlin; Caco-2, human colorectal carcinoma cells, ATCC HTB-37; B16F10, mouse melanoma cells, ATCC CRL-6475) were plated at a density of 5,000 cells/well (DU145, HeLa-MaTu-ADR), 3,000 cells/well (NCI-H460, HeLa), 2,500 cells/well (A2780), 1,500 cells/well (Caco-2), or 1,000 cells/well (B16F10) in a 96-well multititer plate in 200 μL of their respective growth medium supplemented 10% fetal calf serum. After 24 hours, the cells of one plate (zero-point plate) were stained with crystal violet (see below), while the medium of the other plates was replaced by fresh culture medium (200 μl), to which the test substances were added in various concentrations (0 μM, as well as in the range of 0.001-10 μM; the final concentration of the solvent dimethyl sulfoxide was 0.5%). The cells were incubated for 4 days in the presence of test substances. Cell proliferation was determined by staining the cells with crystal violet: the cells were fixed by adding 20 μl/measuring point of an 11% glutaric aldehyde solution for 15 minutes at room temperature. After three washing cycles of the fixed cells with water, the plates were dried at room temperature. The cells were stained by adding 100 μl/measuring point of a 0.1% crystal violet solution (pH 3.0). After three washing cycles of the stained cells with water, the plates were dried at room temperature. The dye was dissolved by adding 100 μl/measuring point of a 10% acetic acid solution. The extinction was determined by photometry at a wavelength of 595 nm. The change of cell number, in percent, was calculated by normalization of the measured values to the extinction values of the zero-point plate (=0%) and the extinction of the untreated (0 μm) cells (=100%). The IC50 values (inhibitory concentration at 50% of maximal effect) were determined by means of a 4 parameter fit.

Data set [7] concerns A2780, human ovarian carcinoma cells. The data set can be described thus: Proliferation assay, A2780 (crystal violet). To be noted: 96 h, A2780, 4 days, read-out: Inhibition of A2780 cell proliferation IC50. It counts as cell-based. The procedure:
as §1

Where [8] appears, read: Caco-2 monolayer, 2 μM test compound, 2 h.

Usually efflux ratio stands for a quotient of directional permeabilities that is used to spot active efflux. The Papp A→B is how fast a substance crosses the layer from the apical side. Read a high Papp A→B as ready permeation. For orientation: Papp B→A means how fast a substance crosses the layer from the basolateral side.

With `COc1cc(F)ccc1-c1cc(Nc2cc(CS(C)(=O)=O)ccn2)ncc1F` [Example 1, 5-Fluoro-4-(4-fluoro-2-methoxyphenyl)-N-{4-[(methylsulfonyl)methyl]pyridin-2-yl}pyridin-2-amine], the IC50 in data set [1] amounted to 56 nM; in data set [2], 62 nM; in data set [3], 70 nM; in data set [4] it was 37 nM; in data set [5], 100 nM; in data set [6], 84 nM. Besides, the IC50 in data set [7] amounted to 28 nM. Besides, the efflux ratio at 2 h, 2 μM in the data set “Caco-2 permeation assay” (Papp B-A / Papp A-B, Caco-2, 2 μM test compound) is 0.49. The molecule further had a Papp A→B at 2 h, 2 μM in “Caco-2 permeation assay” (setting [8]) of 20.7 ×10⁻⁶ cm/s. Also, in the data set “Caco-2 permeation assay” (setting [8]), the Papp B→A at 2 h, 2 μM was 10.1 ×10⁻⁶ cm/s.
Consider `COc1cc(F)ccc1-c1cc(Nc2cc(CS(C)(=O)=O)cc(C)n2)ncc1F` [Example 2, 5-Fluoro-4-(4-fluoro-2-methoxyphenyl)-N-{6-methyl-4-[(methylsulfonyl)methyl]pyridin-2-yl}pyridin-2-amine], for which the IC50 in data set [1] is 84 nM; in data set [2], 94 nM; in data set [3], 37 nM; in data set [4], 59 nM; in data set [5], 100 nM; in data set [6], 37 nM.
Turning to `COc1cc(F)ccc1-c1cc(Nc2cc(CS(C)(=O)=O)cc(F)n2)ncc1F` [Example 3, 5-Fluoro-4-(4-fluoro-2-methoxyphenyl)-N-{6-fluoro-4-[(methylsulfonyl)methyl]pyridin-2-yl}pyridin-2-amine], the IC50 in data set [6] was found to be 100 nM.
Still for that read-out and setting: the figure for `COc1cc(F)ccc1-c1cc(Nc2cc(CS(C)(=O)=O)cc(C(F)(F)F)n2)ncc1F` [Example 4, 5-Fluoro-4-(4-fluoro-2-methoxyphenyl)-N-{4-[(methylsulfonyl)methyl]-6-(trifluoromethyl)pyridin-2-yl}pyridin-2-amine] is 16 nM; for `COc1cc(F)ccc1-c1cc(Nc2cc(CS(C)(=O)=O)cc(C(F)F)n2)ncc1F` [Example 5, N-{6-(Difluoromethyl)-4-[(methylsulfonyl)methyl]pyridin-2-yl}-5-fluoro-4-(4-fluoro-2-methoxyphenyl)pyridin-2-amine] it is less than 30 nM.

Values taken from patent US9670161B2, “5-fluoro-N-(pyridin-2-yl)pyridin-2-amine derivatives containing a sulfone group” (BAYER PHARMA AKTIENGESELLSCHAFT, priority 2012, dated 2017).
